Source: patent US8883745B2, “C—glycolipids with enhanced Th-1 profile” (New York University, priority 2006, dated 2014)

Columns and labels:
Assay type in all cases: in vivo
[1] = test system: IL-12; experiment: IL-12 levels in sera upon i.v. glycolipid administration to C57BL/6 mice (ELISA); design: IL-12 levels, test 1 / IL-12 levels, test 2 / IL-12 levels, average / IL-12 levels, Total: unit not given here
Method: (§1) Five- to six-week-old female C57BL/6 mice and BALB/c mice were purchased from Taconic. Each glycolipid was stored at 1 mg/ml in 100% DMSO. Mice were injected intravenously with 1 μg of each glyocolipid diluted in 200 μL sterile phosphate buffered saline (PBS). At indicated time points, sera were collected from each animal, and concentrations of IFN-γ, IL-4, and IL-12 in the sera were evaluated by enzyme-linked immunosorbent assay (ELISA). Serum concentrations of IFN-γ, IL-4, and IL-12 were evaluated using an ELISA kit (eBioscience, San Diego, Calif.). Briefly, 96 well flat-bottom ELISA plates (NUNC) were coated with capture antibody according to the manufacture's recommendation and incubated overnight at 4° C. The plates were washed with PBS+0.05% Tween 20 (PBS-T), then incubated with manufacturer provided blocking solution for 1 hr at room temperature to block non-specific binding sites. After washing with PBS-T, sera diluted 1:10 was added to the wells and incubated for 2 hrs at room temperature. Plates were then incubated at room temperature for 1 hr with biotintylated detection antibody, washed, incubated with avidin conjugated to horse radish peroxidase (HRP) for 30 min at room temperature, washed, and finally incubated with tetramethylbenzidine substrate solution in the dark for 10 minutes at room temperature. The antibodies, avidin-HRP, and substrate solution were all diluted according to the manufacture's recommendation. Reactions were stopped with 2.0N sulfuric acid and the cytokine concentration in each well was determined by comparing the absorbance at 450 nm in each well to known standards. The levels of Th1- and Th2-type cytokines were determined in two different genetic backgrounds, i.e., in C57BL/6 mice and BALB/c mice. The following compounds were administered: A=compound (A-1 trans-conformer), B=compound (A-2), C=compound (A-3), D=compound (A-4), E=compound (A-5), Z=control (PBS alone), CRONY=α-C-GalCer, KRN=α-GalCer, GCK109 (A-1 trans-conformer), GCK151 (A-1 cis-conformer), GCK152 (A-7). The levels of cytokines were measured at 0, 2, 6, 12, 24, 48, and 72 hours after the compound administration. The levels of Th1-type cytokines IFN-γ and IL-12 are summarized in FIGS. 2A-C and 3A-C, respectively. Table 7 provides IFN-γ/IL-4 and IL-12/IL-4 ratios for various compounds, which can be used as indicators of their ability to selectively stimulate Th1-type immune responses.

[2] = test system: IL-4; experiment: IL-4 levels in sera upon i.v. glycolipid administration to BALB/c mice (ELISA); design: unit not given here
Method: as §1

[3] = test system: IL-12; experiment: IL-12 levels in sera upon i.v. glycolipid administration to BALB/c mice (ELISA); design: IL-12 levels, test 1 / IL-12 levels, test 2 / IL-12 levels, average / IL-12 levels, Total: unit not given here
Method: as §1

[4] = test system: IFN-γ; experiment: IFN-γ levels in sera upon i.v. glycolipid administration to BALB/c mice (ELISA); design: IFN-γ levels, test 1 / IFN-γ levels, test 2 / IFN-γ levels, average / IFN-γ levels, Total: unit not given here
Method: as §1

CCCCCCCCCCCCCC[C@@H](O)[C@@H](O)[C@H](CC[C@H]1O[C@H](CO)[C@H](O)[C@H](O)[C@H]1O)NC(=O)CCCCCCCCCCCCCCCCCCCOCCCCC [A-5]
IL-12/IL-4 (B6) ([1]; C57BL/6, ratio calculated from Tables 1-6): 3.4
IL-12 levels, average ([1]; C57BL/6, serum, hour 0): 5
IL-12 levels, test 1 ([1]; C57BL/6, serum, hour 0): 5
IL-12 levels, test 2 ([1]; C57BL/6, serum, hour 0): 5
IL-12 levels, average ([1]; C57BL/6, serum, hour 2): 115.5
IL-12 levels, test 1 ([1]; C57BL/6, serum, hour 2): 117
IL-12 levels, test 2 ([1]; C57BL/6, serum, hour 2): 114
IL-12 levels, average ([1]; C57BL/6, serum, hour 6): 1346.5
IL-12 levels, test 1 ([1]; C57BL/6, serum, hour 6): 1351
IL-12 levels, test 2 ([1]; C57BL/6, serum, hour 6): 1342
IL-12 levels, average ([1]; C57BL/6, serum, hour 12): 518.5
IL-12 levels, test 1 ([1]; C57BL/6, serum, hour 12): 535
IL-12 levels, test 2 ([1]; C57BL/6, serum, hour 12): 502
IL-12 levels, average ([1]; C57BL/6, serum, hour 24): 87
IL-12 levels, test 1 ([1]; C57BL/6, serum, hour 24): 96
IL-12 levels, test 2 ([1]; C57BL/6, serum, hour 24): 78
IL-12 levels, average ([1]; C57BL/6, serum, hour 48): 58
IL-12 levels, test 1 ([1]; C57BL/6, serum, hour 48): 52
IL-12 levels, test 2 ([1]; C57BL/6, serum, hour 48): 64
IL-12 levels, average ([1]; C57BL/6, serum, hour 72): 49.5
IL-12 levels, test 1 ([1]; C57BL/6, serum, hour 72): 46
IL-12 levels, test 2 ([1]; C57BL/6, serum, hour 72): 53
IL-12 levels, Total ([1]; C57BL/6, serum, total over hours 0-72): 2182
IL-4 level, average ([2]; hour 0): 27
IL-4 level, test 1 ([2]; hour 0): 27
IL-4 level, test 2 ([2]; hour 0): 27
IL-4 level, average ([2]; hour 2): 156
IL-4 level, test 1 ([2]; hour 2): 122
IL-4 level, test 2 ([2]; hour 2): 190
IL-4 level, average ([2]; hour 6): 67.5
IL-4 level, test 1 ([2]; hour 6): 60
IL-4 level, test 2 ([2]; hour 6): 75
IL-4 level, average ([2]; hour 12): 45.5
IL-4 level, test 1 ([2]; hour 12): 48
IL-4 level, test 2 ([2]; hour 12): 43
IL-4 level, average ([2]; hour 24): 41
IL-4 level, test 1 ([2]; hour 24): 39
IL-4 level, test 2 ([2]; hour 24): 43
IL-4 level, average ([2]; hour 48): 40
IL-4 level, test 1 ([2]; hour 48): 41
IL-4 level, test 2 ([2]; hour 48): 39
IL-4 level, average ([2]; hour 72): 3.4
IL-4 level, test 1 ([2]; hour 72): 3.4
IL-4 level, test 2 ([2]; hour 72): 3.4
IL-4 level, Total ([2]; total over hours 0-72): 382
IL-12/IL-4 (BALB/c) ([3]; ratio calculated from Tables 1-6): 13
IL-12 levels, average ([3]; serum, hour 0): 5
IL-12 levels, test 1 ([3]; serum, hour 0): 5
IL-12 levels, test 2 ([3]; serum, hour 0): 5
IL-12 levels, average ([3]; serum, hour 2): 153.5
IL-12 levels, test 1 ([3]; serum, hour 2): 74
IL-12 levels, test 2 ([3]; serum, hour 2): 233
IL-12 levels, average ([3]; serum, hour 6): 1668
IL-12 levels, test 1 ([3]; serum, hour 6): 1587
IL-12 levels, test 2 ([3]; serum, hour 6): 1749
IL-12 levels, average ([3]; serum, hour 12): 2806.5
IL-12 levels, test 1 ([3]; serum, hour 12): 2246
IL-12 levels, test 2 ([3]; serum, hour 12): 3367
IL-12 levels, average ([3]; serum, hour 24): 141
IL-12 levels, test 1 ([3]; serum, hour 24): 110
IL-12 levels, test 2 ([3]; serum, hour 24): 172
IL-12 levels, average ([3]; serum, hour 48): 97
IL-12 levels, test 1 ([3]; serum, hour 48): 0
IL-12 levels, test 2 ([3]; serum, hour 48): 194
IL-12 levels, average ([3]; serum, hour 72): 76.5
IL-12 levels, test 1 ([3]; serum, hour 72): 153
IL-12 levels, test 2 ([3]; serum, hour 72): 0
IL-12 levels, Total ([3]; serum, total over hours 0-72): 4949
IFN-γ/IL-4 (BALB/c) ([4]; BALB/c, ratio calculated from Tables 1-6): 39
IFN-γ levels, average ([4]; BALB/c, serum, hour 0): 2.5
IFN-γ levels, test 1 ([4]; BALB/c, serum, hour 0): 27
IFN-γ levels, test 2 ([4]; BALB/c, serum, hour 0): 27
IFN-γ levels, average ([4]; BALB/c, serum, hour 2): 101
IFN-γ levels, test 1 ([4]; BALB/c, serum, hour 2): 118
IFN-γ levels, test 2 ([4]; BALB/c, serum, hour 2): 84
IFN-γ levels, average ([4]; BALB/c, serum, hour 6): 1665
IFN-γ levels, test 1 ([4]; BALB/c, serum, hour 6): 1650
IFN-γ levels, test 2 ([4]; BALB/c, serum, hour 6): 1680
IFN-γ levels, average ([4]; BALB/c, serum, hour 12): 3566
IFN-γ levels, test 1 ([4]; BALB/c, serum, hour 12): 4018
IFN-γ levels, test 2 ([4]; BALB/c, serum, hour 12): 3114
IFN-γ levels, average ([4]; BALB/c, serum, hour 24): 9104.5
IFN-γ levels, test 1 ([4]; BALB/c, serum, hour 24): 8738
IFN-γ levels, test 2 ([4]; BALB/c, serum, hour 24): 9471
IFN-γ levels, average ([4]; BALB/c, serum, hour 48): 425.5
IFN-γ levels, test 1 ([4]; BALB/c, serum, hour 48): 453
IFN-γ levels, test 2 ([4]; BALB/c, serum, hour 48): 398
IFN-γ levels, average ([4]; BALB/c, serum, hour 72): 56
IFN-γ levels, test 1 ([4]; BALB/c, serum, hour 72): 54
IFN-γ levels, test 2 ([4]; BALB/c, serum, hour 72): 58
IFN-γ levels, Total ([4]; BALB/c, serum, total over hours 0-72): 14922
effect: higher/extended IFN-γ and IL-12 with much lower IL-4 compared to α-GalCer (KRN) ([4]; C57BL/6 and BALB/c mice, 1 μg i.v.): particularly pronounced
